Measured values as given in patent US8158623B2, “Heptacyclic compounds and the pharmaceutical uses thereof for preventing and treating diabetes and metabolic syndrome” (Shanghai Institute of Materia Medica Chinese Academy of …, priority 2007, dated 2012).

Columns and labels:
3T3-L1 adipocytes = experiment: Glucose uptake in 3T3-L1 adipocytes (3H-labelled 2-deoxyglucose); format: cell-based; conditions: for Glucose uptake, Mean, Compound + Insulin Group (Control Group = 1.000): with insulin, relative to control without insulin; for fold induction at 10 µM: Mus musculus, 3T3-L1, 2 h incubation, read-out: Glucose uptake, Mean, Compound Group (Control Group = 1.000)
Method: The effect of the compounds on baseline or insulin-stimulated glucose uptake was evaluated, using the model of glucose uptake in 3T3-L1 adipocytes.
Adipose tissue is the target of glucose metabolism in vivo. The sensitivity for insulin and availability of glucose in adipose tissues are tightly associated with the insulin resistance. The transportation of glucose into adipocytes is a rate-limiting step for the glucose metabolism, and also an important indicator for evaluating the sensitivity for insulin in adipose tissue. 3T3-L1 is a kind of pre-adipocyte, and can become adipocyte after differentiated completely. Therefore, 3T3-L1 is a desirable model for the glucose transport.
Pre-adipocyte, 3T3-L1 was induced to differentiate under certain conditions. After 3T3-L1 differentiated into adipocytes, the compounds of interest with different concentrations and DMSO (used as control) can be added and incubated with the adipocytes for different periods, then the glucose uptake could be determined. For evaluating the ability for a compound to stimulate glucose uptake, the baseline and insulin-induced glucose uptake were determined, and the increase in baseline and insulin-induced glucose uptake upon treatment of the compounds as compared with control group (with 0.1% DMSO) is calculated, based on the ^3H-labelled 2-deoxyglucose inside the cells.
3T3-L1 cells purchased from Karolinska Institute (Sweden) were cultured in DMEM medium containing 10% fetal calf serum at 37° C., under 5% CO2. The cells were passaged every 3-4 days. The cells were inoculated into 12-well plate. Upon confluence, culture medium containing 0.5 mM 3-isobutyl-1-methylxanthine, 0.25 μM dexamethasone and 5 μg/ml insulin was added and cultured for 3 days. Then, the culture medium was replaced by a medium containing 5 μg/ml insulin and further cultured for 3 days. The insulin was removed, and the cells had differentiated completely into mature adipocytes after 2 days which could be used to determine the glucose uptake.
23 compounds chosen by the inventors were added into the culture medium of adipocytes in a dose of 10 μM. After incubation for 2 h, the effect of the compounds on glucose uptake in 3T3-L1 cells was observed. Culture medium without compounds was used as negative control. The control group only supplemented with insulin and the experiment group supplemented with compounds plus insulin were also employed to observe the effect of the compounds on glucose uptake.

[1] = tested on: AMP-Activated Protein Kinase (AMPK); experiment: Phosphorylation of AMPK in HepG2 cell (Western blot); format: cell-based, Human; conditions: HepG2, 50 uM, 5 minutes, P<0.01 or P<0.05
Method: (§1) Human hepatoma carcinoma cell strain (HepG2, purchased from the cell bank of Shanghai Institute of Cell Biology of Chinese Academy) was used. The Human hepatoma carcinoma cells were passaged by 0.1% pancreatin/0.02% EDTA digestion, and cultured in a incubator at 37° C. using MEM culture medium containing 10% FBS, under 5% CO2/95%.
(§2) HepG2 cells were cultured in 6-well plates for 48 hours until 70%-80% confluence. Serum starvation was started by changing medium with MEM containing 0.5% BSA. After starvation for 6 hours, cells were treated with the compounds (final concentration of 50 uM, containing 0.25% DMSO) for 5 minutes. The culture medium was discarded, and cells were harvested and washed for twice with pre-cooled PBS. The washing liquid was discarded, and any residual PBS was blotted dry. DMSO without heptacyclic compounds was used as control.
(§3) Extraction of total cellular protein: 150 μl/well homogenizing buffer (137 mM NaCl, 2.7 mM KCl, 1 mM MgCl2, 0.5 mM Na3VO4, 1% Triton X-100, 10% Glycerol, 20 mM Tris-HCl pH 7.8, 1 ug/ml Leupeptin, 0.2 mM PMSF, 10 mM NaF, 1 ug/ml Aprotinin, 1 mM EDTA, 1 mM DTT, 5 mM Sodium pyrophosphate, 1 mM Benzamidine) was added. Cells were collected into a 1.5 ml centrifuge tube using cell scraper. Cells were homogenized using sonicator (5 W of power) for 2 times (3 seconds per time), and shaken on a shaker for 1 hour. Supernatant (i.e., total cellular protein) was collected by centrifuging at 14000 rpm for 15 min at 4° C., and stored at −70° C. until use. After the protein concentration was determined by Bradford method, the supernatant was formulated as the loading sample with final concentration of 0.6 mg/ml. The whole preparation process was performed at 4° C.
(§4) Protein Electrophoresis: After being treated at 95° C. for 5 min, the loading sample was loaded (15 μg protein/lane). The protein was separated on 7.5% SDS-acrylamide gel for 1-2 hours under the voltage of 80-120 V.
(§5) Electrotransferring the protein and blocking the membrane: After electrophoresis was finished, the protein was transferred to PVDF membrane using semi-dry transferring slot based on 0.8 mA/cm^2 membrane area under the electric current of 80 mA for 2 hours. After that, the membrane was shaken for 2 hours with 7.5% skim milk/TTBS to block the membrane.
(§6) Antigen-antibody reaction: After the blocking process was finished, the membrane was incubated with primary antibody (antibody against phosphorylated ACC (P-ACC) and antibody against phosphorylated AMPK (P-AMPK), all purchased from Cell signaling (USA), with the working concentration of 1:1000) overnight at 4° C. The membrane was removed, and the primary antibody was recovered. The membrane was washed 5 times, each for 10 min in TTBS. The membrane was shaken for 2 hours with the secondary antibody (horseradish peroxidase-conjugated goat-anti-rabbit IgG antibody, purchased from Bio-rad (USA), with the working concentration of 1:5000) at room temperature. The secondary antibody was discarded. The membrane was washed 5 times, each for 10 min in TTBS in order to remove the unbound secondary antibody.
(§7) ECL exposure and development: Luminescent agents, ECL 1, 2, were mixed homogeneously, and incubated with the membrane for 3-5 min. The membrane was removed, wrapped in preservative film, and transferred into dark room for exposure. After exposure with X-film, the film was developed, washed, recorded and conserved.
(§8) Semi-quantitative analysis was performed through optical density scan using computer image analysis system. Grey level of the protein expression was calculated. The target grey level was divided by the grey level of internal standard, and a histogram was plotted, taking the normal group as 1 unit.

[2] = tested on: Acetyl CoA Carboxylase (ACC); experiment: Phosphorylation of ACC in HepG2 cell (Western blot); format: cell-based, Human; conditions: HepG2, 50 uM, 5 minutes, P<0.01 or P<0.05
Method: as §1, §2, §3, §4, §5, §6, §7, §8

[3] = baseline (without insulin), relative to control

With O=C1Oc2ccccc2Oc2ccccc21 [AA0, Dibenzo[b,e][1,4]dioxepin-11-one] the “Glucose uptake, Mean, Compound + Insulin Group (Control Group = 1.000)” value (3T3-L1 adipocytes; 10 μM, 2 h incubation) was 2.130 and the fold induction at 10 µM (3T3-L1 adipocytes; [3]) was 1.12.

For CCCOC(=O)c1cc(OC)c(C)c2c1Oc1c(CNc3ccc(S(N)(=O)=O)cc3)c(O)cc(C)c1C(=O)O2 [AA5, 3-Hydroxy-8-methoxy-1,9-dimethyl-11-oxo-4-[(4-sulfamoyl-phenylamino)-methyl]-11H-dibenzo[b,e][1,4]dioxepine-6-carboxylic acid propyl ester], the “Level of phosphorylation for AMPK protein versus DMSO control” value [1] was “increased significantly”.

For CCCOC(=O)c1cc(OC)c(C)c2c1Oc1c(CNCCN3CCOCC3)c(O)cc(C)c1C(=O)O2 [AA6, 3-Hydroxy-8-methoxy-1,9-dimethyl-4-[(2-morpholin-4-yl-ethylamino)-methyl]-11-oxo-11H-dibenzo[b,e][1,4]dioxepine-6-carboxylic acid propyl ester], the “Level of phosphorylation for ACC protein versus DMSO control” value [2] was “improved significantly” and the “Level of phosphorylation for AMPK protein versus DMSO control” value [1] was “increased significantly”.

COc1cc(C(=O)O)c2c(c1C)OC(=O)c1c(C)cc(O)c(CNc3ccc(F)cc3)c1O2 [AA7, 4-[(4-Fluoro-phenylamino)-methyl]-3-hydroxy-8-methoxy-1,9-dimethyl-11-oxo-11H-dibenzo[b,e][1,4]dioxepine-6-carboxylic acid] was tested, and the “Glucose uptake, Mean, Compound + Insulin Group (Control Group = 1.000)” value (3T3-L1 adipocytes; 10 μM, 2 h incubation) was 1.786, the fold induction at 10 µM (3T3-L1 adipocytes; [3]) was 1.13 and the “Level of phosphorylation for ACC protein versus DMSO control” value [2] was “improved significantly”.

For CNC(=O)c1cc(OC)c(C)c2c1Oc1c(C=O)c(O)cc(C)c1C(=O)O2 [AB2, 4-Formyl-3-hydroxy-8-methoxy-1,9-dimethyl-11-oxo-11H-dibenzo[b,e][1,4]dioxepine-6-carboxylic acid methylamide], the “Glucose uptake, Mean, Compound + Insulin Group (Control Group = 1.000)” value (3T3-L1 adipocytes; 10 μM, 2 h incubation) was 1.639 and the fold induction at 10 µM (3T3-L1 adipocytes; [3]) was 1.18.

For CCNC(=O)c1cc(OC)c(C)c2c1Oc1c(C=O)c(O)cc(C)c1C(=O)O2 [AB4, 4-Formyl-3-hydroxy-8-methoxy-1,9-dimethyl-11-oxo-11H-dibenzo[b,e][1,4]dioxepine-6-carboxylic acid ethylamide], the “Glucose uptake, Mean, Compound + Insulin Group (Control Group = 1.000)” value (3T3-L1 adipocytes; 10 μM, 2 h incubation) was 1.837 and the fold induction at 10 µM (3T3-L1 adipocytes; [3]) was 1.11.

For COc1cc(C(=O)Nc2ccc(S(N)(=O)=O)cc2)c2c(c1C)OC(=O)c1c(C)cc(O)c(C=Nc3ccc(S(N)(=O)=O)cc3)c1O2 [AB9, 3-Hydroxy-8-methoxy-1,9-dimethyl-11-oxo-4-[(4-sulfamoylphenyl)-iminomethyl]-11H-dibenzo[b,e][1,4]dioxepine-6-[carboxy-(4-sulfamoyl)phenylamide]], the “Glucose uptake, Mean, Compound Group (Control Group = 1.000)” value (3T3-L1 adipocytes; 10 μM, 2 h incubation, baseline (without insulin), relative to control) was 1.150 and the “Glucose uptake, Mean, Compound + Insulin Group (Control Group = 1.000)” value (3T3-L1 adipocytes; 10 μM, 2 h incubation) was 1.555.

With COc1ccc2c(c1)NC(=O)c1cc(Cl)c(O)cc1N2 [BT5, 2-Chloro-3-hydroxy-8-methoxy-5,10-dihydro-dibenzo[b,e][1,4]diazepin-11-one] the “Glucose uptake, Mean, Compound + Insulin Group (Control Group = 1.000)” value (3T3-L1 adipocytes; 10 μM, 2 h incubation) was 1.728, the fold induction at 10 µM (3T3-L1 adipocytes; [3]) was 1.23 and the “Level of phosphorylation for ACC protein versus DMSO control” value [2] was “improved significantly”.

With Cc1cc2c(c(C(=O)O)c1)Nc1ncccc1C(=O)N2 [BT7, 8-Methyl-5-oxo-6,11-dihydro-5H-benzo[b]pyrido[2,3-e][1,4]diazepine-10-carboxylic acid] the “Level of phosphorylation for ACC protein versus DMSO control” value [2] was “improved significantly” and the “Level of phosphorylation for AMPK protein versus DMSO control” value [1] was “increased significantly”.

For COc1cnc2c(c1)NC(=O)c1ccc(O)c(C=O)c1N2 [BU0, 9-Hydroxy-3-methoxy-6-oxo-6,11-dihydro-5H-benzo[e]pyrido[3,2-b][1,4]diazepine-10-carbaldehyde], the “Glucose uptake, Mean, Compound + Insulin Group (Control Group = 1.000)” value (3T3-L1 adipocytes; 10 μM, 2 h incubation) was 2.147, the fold induction at 10 µM (3T3-L1 adipocytes; [3]) was 1.43 and the “Level of phosphorylation for AMPK protein versus DMSO control” value [1] was “increased significantly”.

In the case of COC(=O)c1cc(OC)c(C)c2c1Oc1c(C=O)c(O)cc(C)c1C(=O)O2 [Compound A0, 4-Formyl-3-hydroxy-8-methoxy-1,9-dimethyl-11-oxo-11H-dibenzo[b,e][1,4]dioxepine-6-carboxylic acid methyl ester], the “Glucose uptake, Mean, Compound + Insulin Group (Control Group = 1.000)” value (3T3-L1 adipocytes; 10 μM, 2 h incubation) is reported as 2.710, the fold induction at 10 µM (3T3-L1 adipocytes; [3]) is reported as 1.33 and the “Level of phosphorylation for ACC protein versus DMSO control” value [2] is reported as “improved significantly”.

With CCCCOC(=O)c1cc(OC)c(C)c2c1Oc1c(C=O)c(O)cc(C)c1C(=O)O2 [Compound A6, 4-Formyl-3-hydroxy-8-methoxy-1,9-dimethyl-11-oxo-11H-dibenzo[b,e][1,4]dioxepine-6-carboxylic acid butyl ester] the “Level of phosphorylation for ACC protein versus DMSO control” value [2] was “improved significantly” and the “Level of phosphorylation for AMPK protein versus DMSO control” value [1] was “significant up-regulation”.

With COc1cc(C(=O)O)c2c(c1C)OC(=O)c1c(C)cc(O)c(CN3CCNCC3)c1O2 [Compound D1, 3-Hydroxy-8-methoxy-1,9-dimethyl-11-oxo-4-(piperazin-1-ylmethyl)-11H-dibenzo[b,e][1,4]dioxepine-6-carboxylic acid] the “Glucose uptake, Mean, Compound + Insulin Group (Control Group = 1.000)” value (3T3-L1 adipocytes; 10 μM, 2 h incubation) was 3.673, the fold induction at 10 µM (3T3-L1 adipocytes; [3]) was 1.28 and the “Level of phosphorylation for AMPK protein versus DMSO control” value [1] was “increased significantly”.

COc1cc(C(=O)O)c2c(c1C)OC(=O)c1c(C)cc(O)c(CNC(C)(C)C)c1O2 [Compound D3, 4-(tert-Butylamino-methyl)-3-hydroxy-8-methoxy-1,9-dimethyl-11-oxo-11H-dibenzo[b,e][1,4]dioxepine-6-carboxylic acid] was tested, and the “Glucose uptake, Mean, Compound + Insulin Group (Control Group = 1.000)” value (3T3-L1 adipocytes; 10 μM, 2 h incubation) was 3.001 and the fold induction at 10 µM (3T3-L1 adipocytes; [3]) was 1.12.

For COc1cc(C(=O)O)c2c(c1C)OC(=O)c1c(C)cc(O)c(CN3CCN(Cc4ccccc4)CC3)c1O2 [Compound D4, 4-(4-Benzyl-piperazin-1-ylmethyl)-3-hydroxy-8-methoxy-1,9-dimethyl-11-oxo-11H-dibenzo[b,e][1,4]dioxepine-6-carboxylic acid], the “Glucose uptake, Mean, Compound + Insulin Group (Control Group = 1.000)” value (3T3-L1 adipocytes; 10 μM, 2 h incubation) was 3.717 and the fold induction at 10 µM (3T3-L1 adipocytes; [3]) was 1.19.

In the case of COc1cc(C(=O)O)c2c(c1C)OC(=O)c1c(C)cc(O)c(CNc3ccc(NC(C)=O)cc3)c1O2 [Compound D8, 4-[(4-Acetylamino-phenylamino)-methyl]-3-hydroxy-8-methoxy-1,9-dimethyl-11-oxo-11H-dibenzo[b,e][1,4]dioxepine-6-carboxylic acid], the “Glucose uptake, Mean, Compound + Insulin Group (Control Group = 1.000)” value (3T3-L1 adipocytes; 10 μM, 2 h incubation) is reported as 3.877, the fold induction at 10 µM (3T3-L1 adipocytes; [3]) is reported as 1.21 and the “Level of phosphorylation for ACC protein versus DMSO control” value [2] is reported as “improved significantly”.
